# From ChEMBL document CHEMBL3508693 (2016)
# Key:
# [1] = Excretion of radioactivity (48-72h) in urine following single oral dose of 500 mg.Kg-1 [14C] aliskiren hemifumarate in mouse; assay type: ADME, organism-based, TgRasH2; settings: in vivo
# [2] = Excretion (24h) of radioactivity in urine following oral administration of [14C] aliskiren hemifumarate at 100 mg.Kg-1 level in rat; assay type: ADME, organism-based, Lister-Hooded; settings: in vivo
# [3] = Absorption (0-168h) of total radioactivity following single oral administration of [14C] aliskiren hemifumarate at 3 mg.Kg-1 level in marmoset; assay type: ADME, organism-based, Callithrix jacchus, Plasma; settings: in vivo
# [4] = Excretion of radioactivity (72-96h) in urine following single intravenous dose of 10 mg.Kg-1 [14C] aliskiren hemifumarate in rat; assay type: ADME, organism-based, Albino HAN:WIST; settings: in vivo
# [5] = Excretion of radioactivity (0-24h) in faeces following single intravenous dose of 10 mg.Kg-1 [14C] aliskiren hemifumarate in rat; assay type: ADME, organism-based, Albino HAN:WIST, Feces; settings: in vivo
# [6] = Cmax of radioactivity following repeated oral administration of [14C] aliskiren hemifumarate at 100 mg.Kg-1 level studied after 2h of dosing on day 10 in rat; assay type: ADME, organism-based, Albino HAN:WIST; settings: in vivo, read-out: Cmax(10)
# [7] = Excretion (0-24h) of radioactivity in urine following oral administration of [14C] aliskiren hemifumarate at 3 mg.Kg-1 level in marmoset; assay type: ADME, organism-based, Callithrix jacchus; settings: in vivo
# [8] = AUC of [14C] aliskiren hemifumarate following single intravenous dose of [14C] aliskiren hemifumarate at 10 mg.Kg-1 level in mouse; assay type: ADME, organism-based, TgRasH2, Plasma; settings: in vivo
# [9] = AUC (0-96 or 0-168h) of total radioactivity following single intravenous administration of [14C] aliskiren hemifumarate at 1 mg.Kg-1 level in marmoset; assay type: ADME, organism-based, Callithrix jacchus, Plasma; settings: in vivo
# [10] = AUC of SPP100 following single intravenous dose of [14C] aliskiren hemifumarate at 1 mg.Kg-1 level in marmoset; assay type: ADME, organism-based, Callithrix jacchus, Plasma; settings: in vivo
# CYP2C9 = CYP2C9 (Homo sapiens, UniProt P11712); assay: Inhibitory activity of 200 uM SPP100 on 201 Pmoles of cDNA-derived CYP2C9 enzyme in microsome prepared from human lymphoblastoid cell line; assay type: ADME, microsomes; design: conc 200 uM, interact cpd conc 6 uM; settings: probe diclofenac
# Chain of CYP2C9 (P11712 whole entry): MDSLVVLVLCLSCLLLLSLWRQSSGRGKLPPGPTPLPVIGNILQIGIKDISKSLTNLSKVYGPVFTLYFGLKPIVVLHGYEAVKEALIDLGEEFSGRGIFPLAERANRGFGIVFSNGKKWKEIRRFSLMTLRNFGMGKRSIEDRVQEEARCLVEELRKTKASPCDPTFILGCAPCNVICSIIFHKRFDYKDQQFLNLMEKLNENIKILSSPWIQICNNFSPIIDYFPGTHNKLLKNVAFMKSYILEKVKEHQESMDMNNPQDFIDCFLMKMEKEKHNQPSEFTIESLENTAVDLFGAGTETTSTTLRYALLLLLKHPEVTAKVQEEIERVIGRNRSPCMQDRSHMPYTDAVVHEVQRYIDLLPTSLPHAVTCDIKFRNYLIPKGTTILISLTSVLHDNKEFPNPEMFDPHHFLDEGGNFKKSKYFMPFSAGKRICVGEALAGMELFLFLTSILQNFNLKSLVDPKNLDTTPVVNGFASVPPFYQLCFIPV
# [11] = Terminal elimination half-life of SPP100 following single oral dose of SPP100 75 mg capsule studied in healthy human; assay type: ADME, organism-based; settings: plasma
# CYP2A6 = biological target: T1, CYP2A6 (Homo sapiens, UniProt P11509); assay: Inhibitory activity of 20 uM SPP100 on 39 Pmoles of cDNA-derived CYP2A6 enzyme in microsome prepared from human lymphoblastoid cell line; assay type: ADME, microsomes; design: conc 20 uM, interact cpd conc 3 uM; settings: probe coumarine
# T1 sequence (P11509 whole entry): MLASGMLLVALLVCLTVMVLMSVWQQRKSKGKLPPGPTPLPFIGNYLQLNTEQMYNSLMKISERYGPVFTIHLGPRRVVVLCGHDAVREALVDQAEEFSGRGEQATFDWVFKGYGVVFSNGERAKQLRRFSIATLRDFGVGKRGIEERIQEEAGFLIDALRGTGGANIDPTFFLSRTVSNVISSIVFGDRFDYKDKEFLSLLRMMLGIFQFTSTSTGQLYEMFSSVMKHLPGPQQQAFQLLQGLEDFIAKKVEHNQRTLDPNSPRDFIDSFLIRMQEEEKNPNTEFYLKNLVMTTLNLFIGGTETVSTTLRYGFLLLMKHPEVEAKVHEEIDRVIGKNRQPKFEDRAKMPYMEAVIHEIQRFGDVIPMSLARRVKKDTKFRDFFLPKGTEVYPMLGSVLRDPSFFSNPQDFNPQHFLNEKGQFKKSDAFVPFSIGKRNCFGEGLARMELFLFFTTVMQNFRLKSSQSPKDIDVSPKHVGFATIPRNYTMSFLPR
# [12] = Cmaxspec of aliskiren hemifumarate following 2 week oral dosing of aliskiren hemifumarate at 50 mg.Kg-1 level studied on day 1 in female Callithrix jacchus; assay type: ADME, organism-based, Plasma; settings: marmoset, in vivo, 336 h
# [13] = Tmax of aliskiren hemifumarate following 8 day once-daily dosing of SPP100B oral solution at 640 mg level studied on day 8 in men; assay type: ADME, organism-based; settings: male, human, plasma
# [14] = AUC (0-24h) of aliskiren hemifumarate following 4 week oral dietary dosing of aliskiren hemifumarate at 1500 mg.Kg-1 level in female mouse; assay type: ADME, organism-based; settings: CB6F1-TGrasH2, mouse, plasma
# [15] = biological target: Voltage-gated inwardly rectifying potassium channel KCNH2 (Homo sapiens, UniProt Q12809); assay: Inhibitory concentration of aliskiren hemifumarate against cloned hERG channel expressed in human embryonic kidney cell; assay type: cell-based; settings: hek293
# Chain of Voltage-gated inwardly rectifying potassium channel KCNH2 (Q12809 whole entry): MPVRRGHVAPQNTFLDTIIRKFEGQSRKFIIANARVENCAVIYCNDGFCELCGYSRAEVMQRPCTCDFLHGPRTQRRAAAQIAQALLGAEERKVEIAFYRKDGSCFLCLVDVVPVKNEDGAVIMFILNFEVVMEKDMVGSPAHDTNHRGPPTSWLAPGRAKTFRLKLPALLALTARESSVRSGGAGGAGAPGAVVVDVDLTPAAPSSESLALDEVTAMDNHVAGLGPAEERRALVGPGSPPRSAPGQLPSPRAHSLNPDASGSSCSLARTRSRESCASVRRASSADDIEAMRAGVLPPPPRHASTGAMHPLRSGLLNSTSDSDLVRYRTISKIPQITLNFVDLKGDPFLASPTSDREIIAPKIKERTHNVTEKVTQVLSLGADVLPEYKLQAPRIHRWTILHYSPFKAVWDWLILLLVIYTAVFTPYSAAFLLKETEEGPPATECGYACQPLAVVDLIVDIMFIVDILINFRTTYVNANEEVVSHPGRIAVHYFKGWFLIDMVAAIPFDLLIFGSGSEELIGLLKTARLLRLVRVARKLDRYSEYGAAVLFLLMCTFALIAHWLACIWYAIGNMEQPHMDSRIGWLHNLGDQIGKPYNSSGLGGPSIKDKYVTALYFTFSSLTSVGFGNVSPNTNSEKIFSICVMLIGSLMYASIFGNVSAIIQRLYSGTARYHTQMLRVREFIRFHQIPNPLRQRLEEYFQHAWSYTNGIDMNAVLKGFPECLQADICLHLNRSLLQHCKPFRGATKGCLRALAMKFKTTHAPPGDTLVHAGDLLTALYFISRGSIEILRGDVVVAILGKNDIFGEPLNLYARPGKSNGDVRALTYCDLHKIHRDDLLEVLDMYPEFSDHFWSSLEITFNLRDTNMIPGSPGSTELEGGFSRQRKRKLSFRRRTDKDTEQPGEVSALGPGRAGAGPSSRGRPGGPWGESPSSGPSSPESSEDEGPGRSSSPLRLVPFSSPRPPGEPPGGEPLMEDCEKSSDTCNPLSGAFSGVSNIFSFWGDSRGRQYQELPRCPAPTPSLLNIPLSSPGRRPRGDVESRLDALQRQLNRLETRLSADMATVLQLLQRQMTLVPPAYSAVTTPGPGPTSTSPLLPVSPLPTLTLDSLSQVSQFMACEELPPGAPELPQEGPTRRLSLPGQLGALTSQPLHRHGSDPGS
# [16] = Tmax (0-96h) of unlabeled aliskiren hemifumarate following oral administration of aliskiren hemifumarate at 100 mg.Kg-1 level in rat; assay type: ADME, organism-based; settings: Albino HAN:WIST, plasma
# [17] = AUCspec of aliskiren hemifumarate following 2 week oral dosing of aliskiren hemifumarate at 100 mg.Kg-1 level studied on day 14 in female Callithrix jacchus; assay type: ADME, organism-based, Plasma; settings: marmoset, in vivo, 336 h
# [18] = AUC (0-24h) of aliskiren hemifumarate following 4 week oral dietary dosing of aliskiren hemifumarate at 500 mg.Kg-1 level in female mouse; assay type: ADME, organism-based; settings: CB6F1-TGrasH2, mouse, plasma
# [19] = Tmax of aliskiren hemifumarate following 4 week oral dietary dosing of aliskiren hemifumarate at 500 mg.Kg-1 level in male mouse; assay type: ADME, organism-based; settings: CB6F1-TGrasH2, mouse, in vivo
# [20] = AUC of aliskiren hemifumarate following 8 day once-daily dosing of SPP100B oral solution at 40 mg level studied on day 8 in men; assay type: ADME, organism-based; settings: male, human, plasma
# [21] = Cmax of aliskiren hemifumarate following 8 day once-daily dosing of SPP100B oral solution at 40 mg level studied on day 8 in men; assay type: ADME, organism-based; settings: male, human, plasma
# [22] = Cmax of aliskiren hemifumarate following 4 week oral dietary dosing of aliskiren hemifumarate at 1000 mg.Kg-1 level in female mouse; assay type: ADME, organism-based; settings: CB6F1-TGrasH2, mouse, in vivo
# [23] = Cmaxspec of aliskiren hemifumarate following 2 week oral dosing of aliskiren hemifumarate at 50 mg.Kg-1 level studied on day 14 in male Callithrix jacchus; assay type: ADME, organism-based, Plasma; settings: marmoset, in vivo, 336 h
# [24] = Hepatic blood flow (0-168h) of unlabeled aliskiren hemifumarate following single intravenous administration of aliskiren hemifumarate at 1 mg.Kg-1 level in marmoset; assay type: ADME, organism-based, Callithrix jacchus, Liver; settings: in vivo
# [25] = Cmax of aliskiren hemifumarate following 4 week oral dietary dosing of aliskiren hemifumarate at 500 mg.Kg-1 level in female mouse; assay type: ADME, organism-based; settings: CB6F1-TGrasH2, mouse, in vivo
structure (smiles),measurement,setting,value
COCCCOc1cc(C[C@@H](C[C@H](N)[C@@H](O)C[C@H](C(=O)NCC([14CH3])([14CH3])C(N)=O)C(C)C)C(C)C)ccc1OC.O=C(O)/C=C/C(=O)O,Radiolabel recovery,[1],0.34%
same,Radiolabel recovery,[2],73%
same,Absorption,[3],25%
same,Radiolabel recovery,[4],2.5%
same,Radiolabel recovery,[5],55.7%
same,Cmax,[6],473 nM
same,Radiolabel recovery,[7],2.22%
same,AUC,[8],5.01 µM·h
same,AUC,[9],52.92 µM·h
COCCCOc1cc(C[C@@H](C[C@H](N)[C@@H](O)C[C@H](C(=O)NCC(C)(C)C(N)=O)C(C)C)C(C)C)ccc1OC,AUC,[10],23806 ng·h/mL
same,inhibition at 200 µM,CYP2C9,23%
same,half-life,[11],54 h
same,inhibition at 20 µM,CYP2A6,-2.1%
COCCCOc1cc(C[C@@H](C[C@H](N)[C@@H](O)C[C@H](C(=O)NCC(C)(C)C(N)=O)C(C)C)C(C)C)ccc1OC.COCCCOc1cc(C[C@@H](C[C@H](N)[C@@H](O)C[C@H](C(=O)NCC(C)(C)C(N)=O)C(C)C)C(C)C)ccc1OC.O=C(O)/C=C/C(=O)O [ALISKIREN FUMARATE],Cmax normalised,[12],0.177 (ug/ml)/(mg/kg)
same,Tmax,[13],3.2 h
same,AUC(0-t) at 24 h,[14],5470 ng·h/mL
same,IC25,[15],670.9 µM
same,IC50,[15],OUTCOME = IC50 was not calculated since inhibition did not reach 50% level
same,Tmax,[16],0.25 h
same,AUC normalised,[17],1.42 ((ug.h.ml-1)/(mg/kg)
same,AUC(0-t) at 24 h,[18],857 ng·h/mL
same,Tmax,[19],3 h
same,AUC at 192 h,[20],46.7 ng·h/mL
same,Cmax,[21],6.2 ng/mL
same,Cmax,[22],167 ng/mL
same,Cmax normalised,[23],0.246 (ug/ml)/(mg/kg)
same,Hepatic blood flow,[24],2.8 L·h/kg
same,Cmax,[25],63.8 ng/mL
